Measured values: US9862680B2, “Peripherally substituted monocyclic beta-lactams” (University of Notre Dame du Lac, priority 2016, dated 2018)

Assays:
Oxa-48 = biological target: T1, Oxa-48 (Klebsiella pneumoniae, UniProt Q6XEC0); assay: β-lactamase inhibition, Ki by enzyme kinetics (nitrocefin); format: biochemical; conditions: Oxa-48, class D
T1 construct: purchased Emerald Bioscience
Protocol: (§1) The enzymes KPC-2, Oxa-48, AmpC and NDM-1 were purchased from Emerald Bioscience and the enzymes CTX-14 and SHV-12 were expressed and purified from E. coli at Rempex pharmaceutical (San Diego, Calif.).
(§2) To the first row of a 2-mL deep 96-well block was added 1 mL of 50 mM sodium phosphate buffer at pH 7 with 0.1 mg/mL BSA (bovine serum albumin). To the first row was added an appropriate amount of a 10 mg/mL solution of the compound to be tested to make a 640 μM (4×) solution. Each of the other wells in the 96-well block were charged with 750 μL of the aforementioned buffer. The rows were then repeatedly diluted 1:3 so that the final concentrations of the individual 96-well plates would range in concentrations from 160 μM to 3 nM (8 dilutions). The master block was then used to add 50 pt to each corresponding well in the 96-well flat-bottom plate. An additional 50 of buffer was added to each well. Once the plates were prepared, 50 μL of the enzyme to be tested against were added in buffer to each well [KPC-2 (0.147 mg/mL), CTX-M-14 (0.102 mg/mL), […] (0.331 mg/mL), AmpC (0.699 mg/mL), SHV-12 (0.111 mg/mL), NDM-1 (0.110 mg/mL)]. The plates were incubated at rt for 10 min before 50 μL. of an appropriate indicator were added to each well and the optical density at 495 nm was measured over time. For each enzyme, other than NDM-1, nitrocefin was used. Nitrocefin (10 μM for SHV-12, 50 μM for the other enzymes), was appropriate because when cleaved by a β-lactamase, the color changes from yellow to red. For NDM-1, imipenem (10 μM) was the indicator of choice. Rather than observe the growing presence of optical density at 495 nm, as with nitrocefin, the disappearance of imipenem was monitored. The inhibition curves were monitored and used to perform enzyme kinetics according to Waley to determine the Ki (μM) of each compound against the β-lactamases screened.

SHV-12 = biological target: T2, SHV-12 (Klebsiella pneumoniae, UniProt P0AD64, E235K/G234S/L31Q); assay: as above; format: biochemical; conditions: SHV-12, class A
T2 construct: host or cells: E. coli
Protocol: as §1, §2

KPC-2 = biological target: T3, KPC-2 (Klebsiella pneumoniae, UniProt Q9F663); assay: as above; format: biochemical; conditions: KPC-2, class A
T3 construct: purchased Emerald Bioscience
Protocol: as §1, §2

AmpC = assay: as above; format: biochemical; conditions: class C
Protocol: as §1, §2

CTX-M-14 = biological target: T4, CTX-M-14 (Escherichia coli, UniProt Q9L5C7); assay: as above; format: biochemical; conditions: CTX-M-14, class A
T4 construct: host or cells: E. coli
Protocol: as §1, §2

PAM 2035 = assay: β-lactamase inhibition, Ki by enzyme kinetics; format: biochemical; conditions: PAM 2035, class C
NDM-1 = biological target: T5, NDM-1 (Klebsiella pneumoniae, UniProt C7C422); assay: β-lactamase inhibition, Ki by enzyme kinetics (imipenem); format: biochemical; conditions: NDM-1, class B
T5 construct: purchased Emerald Bioscience
Protocol: as §1, §2

[1] = test system: selected β-lactamase enzymes from classes A, B, C and D; assay: β-lactamase inhibitory activity, results in words; format: biochemical; conditions: C and D (Ambler classification)
Protocol: as §2

E. Coli DC0 = assay: Agar diffusion assay (modified Kirby-Bauer); format: cell-based; conditions: 2 mM solution, 50 μL in 9.0 mm well, P unclear, V very unclear zone, * slightly misshapen zone
Protocol: (§3) Antibacterial activity of the compounds was determined by a modified Kirby-Bauer^27-28 agar-diffusion assay. Overnight cultures of test organisms were grown in LB broth for 18-24h and standard suspensions of […] were prepared in saline solution (0.9% NaCl) according to a 0.5 BaSO4 McFarland Standard. This standardized suspension (0.1 mL) was added to 34 mL of sterile, Mueller Hinton No. 2 agar tempered to 47-50° C. After gentle mixing, the inoculated agar media was poured into a sterile plastic petri dish (145 mm×20 mm) and allowed to solidify near a flame with the lid cracked for 30 min. Wells of 9.0 mm diameter were cut from the petri dish agar and filled with exactly 50 μL of the test sample solution. For studies using mixtures of compounds, both test compounds were diluted to equal concentrations and 50 μL of the mixed compound solution was added to the cut well. The petri dish was incubated at 37° C. for 18-24 h and the inhibition zone diameters were measured (mm) with an electronic caliper after 24-48 h.
(§4) All compound-containing solutions were prepared by first making a 20 mM solution of the compound in DMSO and then diluting that solution 10-fold with MeOH to give the final 2 mM solution used in the assay.
(§5) Plates were incubated after inoculation at 37° C. for 20 hours. Plates were photographed after 1 day. M. vaccae required a longer incubation time, 48 hours, and was photographed after 3 days.

S. Aureus SG511 = assay: Agar diffusion assay (modified Kirby-Bauer); format: cell-based; conditions: 2 mM solution, 50 μL in 9.0 mm well, P unclear, V very unclear zone, * slightly misshapen zone
Protocol: as §3, §4, §5

P. Aeruginosa K799/61 = assay: Agar diffusion assay (modified Kirby-Bauer); format: cell-based; conditions: P. Aeruginosa K799/61 (permeability mutant); 2 mM solution, 50 μL in 9.0 mm well; P unclear, V very unclear zone, * slightly misshapen zone
Protocol: as §3, §4, §5

A. Baumannii ATCC 17961 = assay: Agar diffusion assay (modified Kirby-Bauer); format: cell-based; conditions: 2 mM solution, 50 μL in 9.0 mm well, P unclear, V very unclear zone, * slightly misshapen zone
Protocol: as §3, §4, §5

B. Dolosa AU 0018 = assay: Agar diffusion assay (modified Kirby-Bauer); format: cell-based; conditions: 2 mM solution, 50 μL in 9.0 mm well, P unclear, V very unclear zone, * slightly misshapen zone
Protocol: as §3, §4, §5

E. Coli DC2 = assay: Agar diffusion assay (modified Kirby-Bauer); format: cell-based; conditions: E. Coli DC2, 2 mM solution, 50 μL in 9.0 mm well, P unclear, V very unclear zone, * slightly misshapen zone
Protocol: as §3, §4, §5

B. Subtilis ATCC 6633 = assay: Agar diffusion assay (modified Kirby-Bauer); format: cell-based; conditions: 2 mM solution, 50 μL in 9.0 mm well, P unclear, V very unclear zone, * slightly misshapen zone
Protocol: as §3, §4, §5

P. Aeruginosa K799/wt = assay: Agar diffusion assay (modified Kirby-Bauer); format: cell-based; conditions: P. Aeruginosa K799/wt (wild type); 2 mM solution, 50 μL in 9.0 mm well; P unclear, V very unclear zone, * slightly misshapen zone
Protocol: as §3, §4, §5

M. Luteus ATCC 10240 = assay: Agar diffusion assay (modified Kirby-Bauer); format: cell-based; conditions: M. Luteus ATCC 10240, 2 mM solution, 50 μL in 9.0 mm well, P unclear, V very unclear zone, * slightly misshapen zone
Protocol: as §3, §4, §5

VIM-1 = VIM-1 (Pseudomonas aeruginosa, UniProt A0A0F7KYQ8); assay: β-lactamase inhibition, Ki by enzyme kinetics; format: biochemical; conditions: VIM-1, class B
[2] = test system: panel of Gram-positive and Gram-negative bacteria; assay: MIC determination; format: cell-based; conditions: same panel of Gram-positive and Gram-negative bacteria, all values
[3] = test system: panel of Gram-positive and Gram-negative bacteria; assay: Kirby-Bauer agar diffusion assays, results in words; format: cell-based
Protocol: as §3, §4, §5

M. Vaccae IMET 10670 = assay: Agar diffusion assay (modified Kirby-Bauer); format: cell-based; conditions: 2 mM solution, 50 μL in 9.0 mm well, 48 hours incubation, P unclear, V very unclear zone, * slightly misshapen zone
Protocol: as §3, §4, §5

T1 sequence (Q6XEC0 23-265 limits assumed): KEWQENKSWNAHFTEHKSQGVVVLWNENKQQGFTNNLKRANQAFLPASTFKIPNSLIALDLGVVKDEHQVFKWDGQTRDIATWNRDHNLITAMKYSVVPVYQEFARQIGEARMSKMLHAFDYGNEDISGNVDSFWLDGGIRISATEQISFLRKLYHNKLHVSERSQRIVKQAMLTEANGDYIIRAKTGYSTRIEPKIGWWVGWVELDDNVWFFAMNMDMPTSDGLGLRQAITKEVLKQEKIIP
T2 sequence (P0AD64 22-286 L31Q/G234S/E235K): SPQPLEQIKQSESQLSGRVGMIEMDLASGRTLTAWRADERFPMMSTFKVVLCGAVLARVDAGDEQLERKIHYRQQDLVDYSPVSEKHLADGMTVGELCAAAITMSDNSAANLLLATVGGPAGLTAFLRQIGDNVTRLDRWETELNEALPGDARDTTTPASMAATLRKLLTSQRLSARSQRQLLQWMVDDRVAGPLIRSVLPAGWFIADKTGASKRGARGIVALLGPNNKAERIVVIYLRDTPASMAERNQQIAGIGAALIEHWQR
T5 sequence (C7C422 29-270 limits assumed): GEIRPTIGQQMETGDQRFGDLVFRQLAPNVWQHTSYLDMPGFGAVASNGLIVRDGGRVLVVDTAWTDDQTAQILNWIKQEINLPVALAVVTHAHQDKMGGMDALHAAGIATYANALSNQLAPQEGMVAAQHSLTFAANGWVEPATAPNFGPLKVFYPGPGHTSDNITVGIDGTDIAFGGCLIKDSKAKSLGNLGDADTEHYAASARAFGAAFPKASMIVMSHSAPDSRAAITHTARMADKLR
T3 sequence (Q9F663 25-293 limits assumed): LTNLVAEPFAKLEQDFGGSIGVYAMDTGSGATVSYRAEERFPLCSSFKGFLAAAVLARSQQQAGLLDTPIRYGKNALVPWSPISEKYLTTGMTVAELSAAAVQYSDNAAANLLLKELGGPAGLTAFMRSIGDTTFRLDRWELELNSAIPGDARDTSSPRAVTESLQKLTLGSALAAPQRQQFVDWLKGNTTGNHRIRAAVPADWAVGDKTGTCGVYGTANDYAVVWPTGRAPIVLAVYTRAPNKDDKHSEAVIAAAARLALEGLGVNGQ
T4 sequence (Q9L5C7 entry or part of it): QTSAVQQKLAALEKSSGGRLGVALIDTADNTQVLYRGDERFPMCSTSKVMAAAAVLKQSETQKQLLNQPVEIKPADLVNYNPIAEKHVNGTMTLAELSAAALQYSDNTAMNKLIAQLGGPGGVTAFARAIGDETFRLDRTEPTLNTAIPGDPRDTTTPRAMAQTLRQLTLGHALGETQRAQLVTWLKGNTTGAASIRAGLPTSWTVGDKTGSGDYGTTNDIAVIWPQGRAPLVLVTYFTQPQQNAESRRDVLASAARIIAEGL

SMILES	Ki (Oxa-48) [µM]	Ki (SHV-12) [µM]	Ki (KPC-2) [µM]	Ki (AmpC) [µM]	Ki (CTX-M-14) [µM]	Ki (PAM 2035) [µM]	Ki (NDM-1) [µM]	β-lactamase inhibitory activity, selectivity [1]	Zone of Growth Inhibition (E. Coli DC0)	Zone of Growth Inhibition (S. Aureus SG511)	Zone of Growth Inhibition (P. Aeruginosa K799/61)	Zone of Growth Inhibition (A. Baumannii ATCC 17961)	Zone of Growth Inhibition (B. Dolosa AU 0018) [mm]	Zone of Growth Inhibition (E. Coli DC2) [mm]	Zone of Growth Inhibition (B. Subtilis ATCC 6633)	Zone of Growth Inhibition (P. Aeruginosa K799/wt)	Ki (VIM-1) [µM]	other results
O=C1CC(CBr)N1OS(=O)(=O)c1cccc2ccccc12 (stereo not drawn) [Compound 61b]	4.67	0.198	> 160	> 160	> 160	> 160	> 160	inhibited enzymes from both classes A and D	0 mm	14P	0 mm	0 mm	0	0	12 mm	0 mm	–	–
O=C1CC(CBr)N1OS(=O)(=O)/C=C/c1ccccc1 (stereo not drawn) [Compound 61a]	1.48	0.779	19.3	> 160	0.149	> 160	> 160	inhibited enzymes from both classes A and D	0 mm	–	0 mm	0 mm	0	0	15* mm	0 mm	> 160	Zone of Growth Inhibition (M. Luteus ATCC 10240): 17 mm
O=C1CC(CBr)N1OS(=O)(=O)c1ccc2ccccc2c1 (stereo not drawn) [Compound 61c]	> 160	0.19	> 160	> 160	> 160	> 160	> 160	active only against the class A enzyme SHV-12	0 mm	15 mm	0 mm	0 mm	0	0	–	0 mm	> 160	–
CC(C)(C)OC(=O)NCCSC[C@@H]1NC(=O)[C@H]1NC(=O)OCC1c2ccccc2-c2ccccc21 [Compound 41]	–	–	–	–	–	–	–	–	15V	–	16P	13P	–	–	13P	15P	–	MIC [2]: > 50 µM; antibacterial activity ([3]; E. coli strains DC0 and DC2): only active against the permeability mutant DC0; antibacterial activity ([3]; P. aeruginosa, both the wild type (K799/0 wt) and the permeability mutant (K799/61)): showed activity; antibacterial activity ([3]; against B. subtilis and M. vaccae, A. baumannii, P. aeruginosa and E. coli): moderate activity; zone of inhibition at 2000 µM (S. Aureus SG511; Staphylococcus aureus, read-out: Zone of Growth Inhibition): 0 mm; Zone of Growth Inhibition (M. Vaccae IMET 10670): 17V; zone of inhibition at 2000 µM (B. Dolosa AU 0018; Burkholderia dolosa, read-out: Zone of Growth Inhibition): 0 mm; zone of inhibition at 2000 µM (M. Luteus ATCC 10240; Micrococcus luteus, ATCC10240, read-out: Zone of Growth Inhibition): 0 mm; zone of inhibition at 2000 µM (E. Coli DC2; Escherichia coli, read-out: Zone of Growth Inhibition): 0 mm
